This is an account of results in US20240118559A1, “SUSTAINED RELEASE OF OLEIC ACID FROM CONTACT LENSES” (CooperVision International Limited, priority 2022, published 2024).

Where a name gives a salt, the structure may show the parent alone.

In test [1] the target is T1, recombinant human PLA2G2A (sPLA2) (Homo sapiens, UniProt P14555).
T1 construct: purchased Creative BioMart PLA2G2A-669H
T1 sequence (P14555 21-144): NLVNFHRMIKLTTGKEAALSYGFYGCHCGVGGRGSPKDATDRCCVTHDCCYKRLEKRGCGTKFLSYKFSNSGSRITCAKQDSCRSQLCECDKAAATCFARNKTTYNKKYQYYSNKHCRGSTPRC
The test can be described thus: Oleic acid release from phospholipid-loaded stenfilcon A lenses in ATF with and without sPLA2 (digestion assay, LCMS). The test is classed as biochemical. Conditions: 35±2° C., 4 hours; for Oleic acid peak area in ATF + sPLA2: ATF with 50 ppm recombinant human PLA2G2A; for Oleic acid peak area in ATF + sPLA2 / Oleic acid peak area in ATF: 4 mm piece of loaded stenfilcon A lens, 100 μL; for Oleic acid peak area in ATF: ATF without sPLA2. The protocol: The phospholipids shown in Table 1 were obtain from Avanti Polar Lipids. 3 mg/ml loading solutions of the phospholipids shown in Table 1 were prepared by adding 2.4 mL ethanol to 9 mg of phospholipid, sonicating (up to 15 minutes) then adding 0.6 mL DI water and sonicating again (up to 15 minutes) to dissolve the phospholipid.
Hydrated contact lenses made from stenfilcon A were washed three times in 3 mL purified water for 30 minutes each time. Each washed lens was placed in 3 mL of a phospholipid loading solution and incubated at room temperature with gentle shaking at 75 rpm for 3 hours. The loaded lenses were then rinsed and hydrated in several exchanges of DI water. The lenses were packaged in a buffered saline contact lens packaging solution and autoclaved.
An artificial tear fluid (ATF) was prepared by adding the first three ingredients listed in Table 2 to a clean class vial and then adding 30 mL of the fourth ingredient.
After autoclave each lens was removed from its package and place in a 6 mL glass vial containing 5 mL of the ATF at room temperature on a shaker at 125 rpm overnight to elute any free oleic acid that may be present in the lens.
Each lens was rinsed in a 6 ml glass vial containing a fresh aliquot of 5 mL ATF for 30 minutes prior to running the digestion assay.
A 50 ppm solution of sPLA2 was prepared in ATF by adding 200 μl ATF to a tube containing 10 μg recombinant human PLA2G2A (Creative BioMart, Cat. No. PLA2G2A-669H). The solution is referred to as ATF+sPLA2. Two 4 mm pieces were cut from each lens. One piece of each lens was placed in a tube with 100 μL ATF and the other piece was placed in a tube containing 100 μL ATF+sPLA2. The tubes were incubated at 35±2° C. for 4 hours with no shaking.
50 μl of the release media from each lens at T=4 hr was transferred to HPLC vials and 500 μl isopropanol (IPA) was added and mixed well. T=0 hr HPLC vials were also prepared (50 μl ATF+500 μl IPA). All vials were sonicated for 15 minutes and centrifuged. The supernatant was removed for LCMS injection.
The supernatants were injected on an LCMS instrument equipped with an ACQUITY UPLC BEH C18 […], 2.1 mm×15 cm column and running a mobile phase gradient from 65% A to 90% B at a flow rate of 0.35 mL/min with A=40% acetonitrile in water with 10 mM ammonium acetate and 0.2% (v/v) ammonium hydroxide, and B=10% acetonitrile in IPA with 10 mM ammonium acetate and 0.2% (v/v) ammonium hydroxide. The mass spec detector is run at negative electrospray mode. The peaks for oleic acid (OA) in the supernatants were measured (m/z trace=281.24). The ratio of OA peak area in ATF with and without sPLA2 was calculated.

In test [2] the test system is sPLA2 enzymes found in human tears. The test can be described thus: Susceptibility to digestion by sPLA2 enzymes found in human tears when present in a silicone hydrogel contact lens body. Conditions: phospholipid present in a silicone hydrogel contact lens body. The test is classed as biochemical. The source says: To achieve these and other advantages, and in accordance with the purposes of the present invention, as embodied and broadly described herein, the present invention, in part relates to a hydrogel contact lens comprising a polymeric lens body loaded with 2-oleoyl phospholipid. The 2-oleoyl phospholipid is advantageously susceptible to digestion by secretory phospholipase 2-acylhydrolase (sPLA2) enzymes found in human tears, especially group IIA secretory phospholipase 2-acylhydrolase (sPLA2-IIA). The 2-oleoyl phospholipid present in the contact lens body is advantageously susceptible to digestion by sPLA2 enzymes found in human tears, especially sPLA2-IIA when the 2-oleoyl phospholipid is present in the polymeric lens body of a silicone hydrogel contact lens, such as a stenfilcon A contact lens. […] For the avoidance of doubt, while the determination of whether a 2-oleoyl phospholipid is susceptible to digestion by sPLA2 enzymes may be carried out by loading the 2-oleoyl phospholipid to a stenfilcon A lens, the contact lens of the invention, including contact lenses comprising 2-oleoyl phospholipid that have been determined to be susceptible to digestion by sPLA2 enzymes, need not be stenfilcon A lenses and may be silicone hydrogel lenses of any formulation. […]

As to `CCCCCCCC/C=C\CCCCCCCC(=O)OC[C@H](COP(=O)([O-])OCC(O)CO)OC(=O)CCCCCCC/C=C\CCCCCCCC.[Na+]` (mixture of isomers) [DOPG, 1,2-dioleoyl-sn-glycero-3-phospho-(1′-rac-glycerol) (sodium salt)], in test [1], the “Ratio of OA peak area in ATF with and without sPLA2” value (shortened to “Ratio … with and without sPLA2”) came to 279; the “Oleic acid peak area in ATF + sPLA2” value was 9958; the “Oleic acid peak area in ATF” value was 36.
For the compound `CCCCCCCCCCCCCC(=O)OC[C@H](COP(=O)([O-])OCC[N+](C)(C)C)OC(=O)CCCCCCCCCCCCC` [DMPC, 1,2-dimyristoyl-sn-glycero-3-phosphocholine], in test [2], the “Susceptibility to digestion by sPLA2 enzymes found in human tears” value is listed as “not be susceptible to digestion”.
Regarding `CCCCCCCC/C=C\CCCCCCCC(=O)OC[C@H](COP(=O)([O-])OCC[N+](C)(C)C)OC(=O)CCCCCCC/C=C\CCCCCCCC` [DOPC, 1,2-dioleoyl-sn-glycero-3-phosphocholine, reference compound], in test [1], the “Ratio … with and without sPLA2” value was 1.2; the “Oleic acid peak area in ATF + sPLA2” value is 125; the “Oleic acid peak area in ATF” value stood at 102.
Regarding `CCCCCCCC/C=C\CCCCCCCC(=O)OC[C@H](COP(=O)(O)OCCN)OC(=O)CCCCCCC/C=C\CCCCCCCC` [DOPE, 1,2-dioleoyl-sn-glycero-3-phosphoethanolamine], in test [1], the “Ratio … with and without sPLA2” value is reported as 4.6; the “Oleic acid peak area in ATF + sPLA2” value is recorded as 2127; the “Oleic acid peak area in ATF” value is 463.
For `CCCCCCCC/C=C\CCCCCCCC(=O)OC[C@H](COP(=O)(O)OC[C@H](N)C(=O)O)OC(=O)CCCCCCC/C=C\CCCCCCCC` [DOPS, 1,2-dioleoyl-sn-glycero-3-phospho-L-serine (sodium salt)], in test [1], the “Ratio … with and without sPLA2” value is reported as 16.4; the “Oleic acid peak area in ATF + sPLA2” value is 1437; the “Oleic acid peak area in ATF” value was found to be 88.
